In patent EP2064211B1, “IMIDAZO[1,2-A]PYRIDINE HYDROXYMATE COMPOUNDS THAT ARE INHIBITORS OF HISTONE DEACETYLASE” (MEI Pharma, Inc., priority 2006, dated 2008):

What was measured:
HDAC1 enzyme = target: T1, HDAC1 enzyme (Homo sapiens, UniProt Q13547); assay: In vitro HDAC assay for determination of IC50 values (BIOMOL fluorescent-based HDAC activity assay); assay type: biochemical; settings: recombinant GST-HDAC1, 500 uM Flur de lys substrate, room temperature 2 h; read-out: IC50 (HDAC 1)
T1 construct: Amplification of human HDAC1 coding region from this cDNA library was cloned separately into the baculovirus expression pDEST20 vector; made in house; host or cells: SF9 insect cells (baculovirus, pDEST20 vector)
T1 sequence (Q13547 whole entry): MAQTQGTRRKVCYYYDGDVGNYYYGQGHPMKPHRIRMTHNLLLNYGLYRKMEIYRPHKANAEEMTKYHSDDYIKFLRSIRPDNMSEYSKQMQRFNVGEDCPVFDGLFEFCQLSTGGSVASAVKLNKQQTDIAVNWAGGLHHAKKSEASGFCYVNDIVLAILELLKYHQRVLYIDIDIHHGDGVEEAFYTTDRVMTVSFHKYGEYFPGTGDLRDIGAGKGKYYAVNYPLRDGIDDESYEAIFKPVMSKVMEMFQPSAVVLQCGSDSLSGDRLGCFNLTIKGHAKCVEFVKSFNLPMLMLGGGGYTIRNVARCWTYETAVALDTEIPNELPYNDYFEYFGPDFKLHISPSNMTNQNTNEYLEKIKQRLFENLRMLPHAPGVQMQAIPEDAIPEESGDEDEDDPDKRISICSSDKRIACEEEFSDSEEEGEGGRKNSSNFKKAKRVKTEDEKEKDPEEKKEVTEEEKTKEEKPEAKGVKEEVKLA
Method: Human cDNA library was prepared using cultured SW620 cells. Amplification of human HDAC1 coding region from this cDNA library was cloned separately into the baculovirus expression pDEST20 vector (GATEWAY Cloning Technology, Invitrogen Pte Ltd). The pDEST20-HDAC1 construct was confirmed by DNA sequencing. Recombinant baculovirus was prepared using the Bac-To-Bac method following the manufacturer's instruction (Invitrogen Pte Ltd).
Expression of GST-HDAC1 was done by infecting SF9 cells (Invitrogen Pte Ltd) with pDEST20-HDAC1 baculovirus at MOI=1 for 48 h. Soluble cell lysate was incubated with pre-equilibrated Glutathione Sepharose 4B beads (Amersham) at 4°C for 2 h. The beads were washed with PBS buffer for 3 times. The GST-HDAC1 protein was eluted by elution buffer containing 50 mM Tris, pH8.0, 150mM NaCl, 1% Triton X-100 and 10mM or 20mM reduced Glutathione. The purified GST-HDAC1 protein was dialyzed with HDAC storage buffer containing 10mM Tris, pH7.5, 100mM NaCl and 3mM MgCl2. 20% Glycerol was added to purified GST-HDAC1 protein before storage at -80°C.
The assay has been carried out in 96 well format and the BIOMOL fluorescent-based HDAC activity assay has been applied. The reaction composed of assay buffer, containing 25 mM Tris pH 7.5, 137 mM NaCl, 2.7 mM KCl, 1 mM MgCl2, 1 mg/ml BSA, tested compounds, an appropriate concentration of HDAC1 enzyme, 500 uM Flur de lys generic substrate for HDAC1 enzyme and subsequently was incubated at room temperature for 2 h. Flur de lys Developer was added and the reaction was incubated for 10 min. Briefly, deacetylation of the substrate sensitizes it to the developer, which then generates a fluorophore. The fluorophore is excited with 360 nm light and the emitted light (460 nm) is detected on a fluorometric plate reader (Tecan Ultra Microplate detection system, Tecan Group Ltd.).
The analytical software, Prism 4.0 (GraphPad Software Inc) has been used to generate IC50 from a series of data. IC50 is defined as the concentration of compound required for 50% inhibition of HDAC enzyme activity.

Colo205 cells = assay: Cell-based proliferation assay for determination of GI50 values (CyQUANT); parameters: species or system Human; settings: Homo sapiens, COLO 205, compound treatment 96 h, concentration for 50% inhibition of cell growth, read-out: Gl50 (Colo205)
Method: Human cancer cell lines (e.g. Colo205) were obtained from ATCC. Colo205 cells were cultivated in RPMI 1640 containing 2 mM L-Glutamine, 5% FBS, 1.0 mM Na Pyruvate. Colo205 cells were seeded in 96-wells plate at 5000 cells per well. The plates were incubated at 37°C, 5% CO2, for 24 h. Cells were treated with compounds at various concentrations for 96 h. Cell growth was then monitored using CyQUANT® cell proliferation assay (Invitrogen Pte Ltd). Dose response curves were plotted to determine Gl50 values for the compounds using XL-fit (ID Business Solution, Emeryville, CA). Gl50 is defined as the concentration of compound required for 50% inhibition of cell growth.

Row | Structure (SMILES) | IC50 (HDAC1 enzyme) | IC50 (Colo205 cells)
1 | CCN(Cc1c(C(C)(C)C)nc2cc(C=CC(=O)NO)ccn12)CC1CC1 [Compound 27, 3-{2-tert-Butyl-3-[(cyclopropylmethyl-ethyl-amino)-methyl]-imidazo[1,2-a]pyridin-7-yl}-N-hydroxy-acrylamide] | 330 nM | 2100 nM
2 | CCN(Cc1c(C(C)(C)C)nc2cc(C=CC(=O)NO)ccn12)CC1CCCCC1 [Compound 28, 3-{2-tert-Butyl-3-[(cyclohexylmethyl-ethyl-amino)-methyl]-imidazo[1,2-a]pyridin-7-yl}-N-hydroxy-acrylamide] | 190 nM | 1100 nM
3 | CCCN(CC)Cc1c(C)nc2cc(C=CC(=O)NO)ccn12 [Compound 30, 3-{3-[(Ethyl-propyl-amino)-methyl]-2-methyl-imidazo[1,2-a]pyridin-7-yl}-N-hydroxy-acrylamide] | 540 nM | 4600 nM
4 | CCC(CC)CN(CC)Cc1c(C)nc2cc(C=CC(=O)NO)ccn12 [Compound 31, 3-(3-{[Ethyl-(2-ethyl-butyl)-amino]-methyl}-2-methyl-imidazo[1,2-a]pyridin-7-yl)-N-hydroxy-acrylamide] | 10 nM | 50 nM
5 | CCCN(Cc1c(C(C)(C)C)nc2cc(C=CC(=O)NO)ccn12)C(C)C [Compound 32, 3-{2-tert-Butyl-3-[(isopropyl-propyl-amino)-methyl]-imidazo[1,2-a]pyridin-7-yl}-N-hydroxy-acrylamide] | 300 nM | 2500 nM
6 | CN(Cc1c(C(C)(C)C)nc2cc(/C=C/C(=O)NO)ccn12)CC(C)(C)C [Compound 33, 3-(-tert-Butyl-3-{[(2,2-dimethyl-propyl)-methyl-amino]-methyl}-imidazo[1,2-a]pyridin-7-yl)-N-hydroxy-acrylamide] | 780 nM | 6300 nM
7 | CCCCN(C)Cc1c(C(C)(C)C)nc2cc(C=CC(=O)NO)ccn12 [Compound 34, 3-{2-tert-Butyl-3-[(butyl-methyl-amino)-methyl]-imidazo[1,2-a]pyridin-7-yl}-N-hydroxy-acrylamide] | 220 nM | 1700 nM
8 | CCC(CC)CN(C)Cc1c(C(C)(C)C)nc2cc(C=CC(=O)NO)ccn12 [Compound 35, 3-(2-tert-Butyl-3-{[(2-ethyl-butyl)-methyl-amino]-methyl}-imidazo[1,2-a]pyridin-7-yl)-N-hydroxy-acrylamide] | 410 nM | 2300 nM
9 | CC(C)CCN(C)Cc1c(C(C)(C)C)nc2cc(C=CC(=O)NO)ccn12 [Compound 36, 3-(2-tert-Butyl-3-{[methyl-(3-methyl-butyl)-amino]-methyl}-imidazo[1,2-a]pyridin-7-yl)-N-hydroxy-acrylamide] | 350 nM | 900 nM
10 | CN(CCC(C)(C)C)Cc1c(C(C)(C)C)nc2cc(C=CC(=O)NO)ccn12 [Compound 37, 3-(2-tert-Butyl-3-{[(3,3-dimethyl-butyl)-methyl-amino]-methyl}-imidazo[1,2-a]pyridin 7-yl)-N-hydroxy-acrylamide] | 270 nM | 730 nM
11 | CCCN(Cc1c(C)nc2cc(C=CC(=O)NO)ccn12)CC(C)(C)C [Compound 38, 3-(3-{[(2,2-Dimethyl-propyl)-propyl-amino]-methyl}-2-methyl-imidazo[1,2-a]pyridin-7-yl)-N-hydroxy-acrylamide] | 130 nM | 700 nM
12 | CCN(Cc1c(C)nc2cc(C=CC(=O)NO)ccn12)CC(C)(C)C [Compound 39, 3-(3-{[(2,2-Dimethyl-propyl)-ethyl-amino]-methyl}-2-methyl-imidazo[1,2-a]pyridin-7-yl)-N-hydroxy-acrylamide] | 50 nM | 600 nM
13 | CCCCc1nc2cc(C=CC(=O)NO)ccn2c1CN(CC)CC(C)C [Compound 40, 3-(2-Butyl-3-[(ethyl-isobutyl-amino)-methyl]-imidazo[1,2-a]pyridin-7-yl}-N-hydroxy-acrylamide] | 90 nM | 570 nM
